Consider 17 molecules from patent US11584747B2, “Substituted pyridopyrimidinonyl compounds useful as T cell activators” (BRISTOL-MYERS SQUIBB COMPANY, priority 2019, dated 2023).

Like-named read-outs stand apart in the source and are kept apart here.

A word on the IC50: it is the concentration that gives 50% inhibition. One may read the EC50 as the concentration needed to bring the measured effect to its halfway point.

The target in experiment [1] is T1, human DGKα (Homo sapiens (Human), UniProt P23743). Description: DGKα LIPGLO assay (extruded liposome substrate, ADP-Glo luminescence). In kind it is biochemical. The note with it: liposome assay; read-out: DGK alpha LIPGLO IC50.
Experiment [2] addresses human DGKζ (Homo sapiens (Human), UniProt Q13574). The experiment can be described thus: DGKζ LIPGLO assay (extruded liposome substrate, ADP-Glo luminescence). Type of experiment: biochemical. For orientation: ADP-Glo turns the ADP formed in a reaction into a luminescent signal.
Experiment [3] deals with T1, human DGKα. Description: DGKα ADPGLO assay (detergent/lipid micelle substrate). The note with it: truncated DGK alpha; read-out: DGK alpha ADPGLO (Truncated) IC50. Type of experiment: biochemical. As to the method:
DGK Alpha ADPGLO (Truncated) IC50 (uM)
The detergent/lipid micelle was prepared by combining 15 g phosphatidylserine (Avanti 840035P) and 1 g diacylglycerol (8008110) and dissolving into 150 mL chloroform in a 2 L round bottom flask. Chloroform was removed under high vacuum by rotary evaporation. […] The lipid/detergent solution was split into 5 mL aliquots and stored at −80° C.

In experiment [4] the test system is human venous whole blood (IFN-γ). Description: Human whole blood IFN-γ assay. Type of experiment: cell-based. The note with it: whole blood, normalized to 3 μM reference compound as 100% activation, read-out: IFN-γ Whole Blood Normalized EC50. As to the method: Human venous whole blood (22.5 μL per well), obtained from healthy donors, was pre-treated with compounds for one hour at 37° C. in a humidified 95% air/5% CO2 incubator. The blood was stimulated with 2.5 μL anti-human CD3 and anti-CD28 mAb at a final concentration of 1 μg/mL each for 24 hours at 37° C. IFN-γ in the supernatants was measured using AlphLISA kit (Cat #AL217).

For experiment [5], the system named is whole blood (pERK). Description: pERK Whole Blood assay (Table A; no whole-blood pERK method described). In kind it is cell-based. The conditions noted are these: normalized.
Experiment [6] concerns whole blood (pERK). The experiment can be described thus: pERK Whole Blood. Type of experiment: cell-based.
[7] abbreviates: liposome assay, read-out: DGK zeta LIPGLO IC50.

Sequence of human DGKζ (Q13574 other isoform, or with tags, fused parts or gaps): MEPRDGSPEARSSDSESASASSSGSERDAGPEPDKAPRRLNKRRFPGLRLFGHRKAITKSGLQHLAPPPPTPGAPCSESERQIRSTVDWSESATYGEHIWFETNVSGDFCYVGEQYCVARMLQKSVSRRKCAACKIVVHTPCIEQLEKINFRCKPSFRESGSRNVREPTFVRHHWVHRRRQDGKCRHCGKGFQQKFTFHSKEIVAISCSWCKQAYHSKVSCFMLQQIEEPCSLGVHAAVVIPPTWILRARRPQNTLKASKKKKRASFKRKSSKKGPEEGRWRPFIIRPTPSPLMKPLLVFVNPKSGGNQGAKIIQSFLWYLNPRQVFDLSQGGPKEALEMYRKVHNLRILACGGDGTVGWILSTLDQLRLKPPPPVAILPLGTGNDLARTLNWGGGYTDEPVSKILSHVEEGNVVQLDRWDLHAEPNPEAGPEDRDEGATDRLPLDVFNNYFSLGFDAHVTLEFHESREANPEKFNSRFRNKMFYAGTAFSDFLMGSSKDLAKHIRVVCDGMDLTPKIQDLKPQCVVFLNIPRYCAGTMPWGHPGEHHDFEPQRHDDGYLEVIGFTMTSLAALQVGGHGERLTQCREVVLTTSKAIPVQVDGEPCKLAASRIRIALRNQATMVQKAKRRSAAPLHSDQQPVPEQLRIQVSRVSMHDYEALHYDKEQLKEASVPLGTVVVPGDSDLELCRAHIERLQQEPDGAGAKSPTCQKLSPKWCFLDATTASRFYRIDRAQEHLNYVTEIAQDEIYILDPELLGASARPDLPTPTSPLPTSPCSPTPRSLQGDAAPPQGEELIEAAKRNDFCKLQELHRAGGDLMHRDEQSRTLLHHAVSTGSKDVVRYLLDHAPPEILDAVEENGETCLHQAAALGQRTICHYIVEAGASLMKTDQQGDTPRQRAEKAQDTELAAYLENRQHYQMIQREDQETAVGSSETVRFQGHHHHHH
T1 sequence (P23743 whole entry, looked up): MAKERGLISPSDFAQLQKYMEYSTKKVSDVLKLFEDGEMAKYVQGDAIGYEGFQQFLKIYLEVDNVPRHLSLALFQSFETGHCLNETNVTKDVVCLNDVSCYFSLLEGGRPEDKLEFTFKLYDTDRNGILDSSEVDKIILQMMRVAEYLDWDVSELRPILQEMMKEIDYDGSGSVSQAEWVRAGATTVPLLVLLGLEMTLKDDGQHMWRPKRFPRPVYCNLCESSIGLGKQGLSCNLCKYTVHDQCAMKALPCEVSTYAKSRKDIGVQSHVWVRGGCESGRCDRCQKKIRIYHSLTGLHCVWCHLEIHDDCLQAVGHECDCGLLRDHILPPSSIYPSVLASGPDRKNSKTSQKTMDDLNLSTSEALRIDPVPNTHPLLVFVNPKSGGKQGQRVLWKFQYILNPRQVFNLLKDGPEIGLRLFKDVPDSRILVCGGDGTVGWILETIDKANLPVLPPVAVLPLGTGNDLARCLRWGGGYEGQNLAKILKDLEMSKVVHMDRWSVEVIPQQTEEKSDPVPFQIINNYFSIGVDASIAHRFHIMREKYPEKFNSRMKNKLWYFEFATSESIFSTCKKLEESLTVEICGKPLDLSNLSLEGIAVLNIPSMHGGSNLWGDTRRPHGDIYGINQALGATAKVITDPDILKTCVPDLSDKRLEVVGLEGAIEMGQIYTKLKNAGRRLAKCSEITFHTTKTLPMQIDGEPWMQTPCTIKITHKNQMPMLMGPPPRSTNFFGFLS

Turning to `CC[C@@H]1CN(c2nc(=O)n(C)c3ccc(C#N)nc23)[C@@H](C)CN1C(c1ccc(OC(F)(F)F)cc1)c1cc(C2CC2)on1` (single isomer, unassigned) [Example 100], the IC50 in experiment [1] stood at 250 nM; in experiment [2] (setting [7]), 110 nM; in experiment [3], 11 nM; in experiment [5] it was 320 nM. Further, the EC50 in experiment [4] (Homo sapiens) worked out at 44 nM.
On to `CC[C@@H]1CN(c2nc(=O)n(C)c3ccc(C#N)nc23)[C@@H](C)CN1C(c1ccc(F)cc1)c1nc(C2CC2)no1` (stereo partly drawn) [Example 113, 4-((2S,5R)-4-((3-cyclopropyl-1,2,4-oxadiazol-5-yl)(4-fluorophenyl)methyl)-5-ethyl-2-methylpiperazin-1-yl)-1-methyl-2-oxo-1,2-dihydropyrido[3,2-d]pyrimidine-6-carbonitrile], for which the IC50 stood at 47 nM in experiment [1], 46 nM in experiment [2] (setting [7]), 10 nM in experiment [3] and 170 nM in experiment [5]. Further, in experiment [4], the EC50 was found to be 57 nM.
For the molecule `CC[C@@H]1CN(c2nc(=O)n(C)c3ccc(C#N)nc23)[C@@H](C)CN1C(C)c1ccc(C(F)(F)F)c(CN2CCCCC2)c1` (stereo partly drawn) [Example 355, 4-((2S,5R)-5-ethyl-2-methyl-4-(1-(3-(piperidin-1-ylmethyl)-4-(trifluoromethyl)phenyl)ethyl)piperazin-1-yl)-1-methyl-2-oxo-1,2-dihydropyrido[3,2-d]pyrimidine-6-carbonitrile], the IC50 in experiment [2] (liposome (LIPGLO) assay, read-out: DGK zeta (liposome assay) IC50) stood at 41700 nM. For the same molecule, the EC50 in experiment [6] was determined as 6690 nM.
Turning to `CC[C@@H]1CN(c2nc(=O)n(C)c3ccc(C#N)nc23)[C@@H](C)CN1C(c1ccc(OC(F)(F)F)cc1)c1cc(C2CC2)on1` (stereo partly drawn) [Example 99, 4-((2S,5R)-4-((5-cyclopropylisoxazol-3-yl)(4-(trifluoromethoxy)phenyl)methyl)-5-ethyl-2-methylpiperazin-1-yl)-1-methyl-2-oxo-1,2-dihydropyrido[3,2-d]pyrimidine-6-carbonitrile], the IC50 stood at 130 nM in experiment [1], 120 nM in experiment [2] (setting [7]), 4 nM in experiment [3] and 140 nM in experiment [5]. Besides, the EC50 in experiment [4] (Homo sapiens) came to 120 nM.
Molecule `C[C@@H]1CN(c2nc(=O)n(C)c3ccc(C#N)nc23)[C@@H](C)CN1C(c1ccc(F)cc1)C12CC(C(F)(F)F)(C1)C2` (stereo partly drawn) [Example 451, 4-((2S,5R)-4-((4-fluorophenyl)(3-(trifluoromethyl)bicyclo[1.1.1]pentan-1-yl)methyl)-2,5-dimethylpiperazin-1-yl)-1-methyl-2-oxo-1,2-dihydropyrido[3,2-d]pyrimidine-6-carbonitrile] displayed an EC50 in experiment [6] of 20000 nM.
Regarding `CCC(c1ccc(OC(F)(F)F)cc1)N1C[C@H](C)N(c2nc(=O)n(C)c3ccc(C#N)nc23)C[C@H]1CC` (single isomer, unassigned) [Example 83], the IC50 in experiment [1] worked out at 97 nM; in experiment [2] (setting [7]), 160 nM; in experiment [3], 15 nM; in experiment [5], 87 nM. Also, in experiment [4], the EC50 came out at 17 nM.
As for `CC[C@@H]1CN(c2nc(=O)n(C)c3ccc(C#N)nc23)[C@@H](C)CN1C(c1ccc(F)cc1)c1ccc(C(F)(F)F)nc1` (single isomer, unassigned) [Example 97], the IC50 in experiment [1] came out at 630 nM; in experiment [2] (setting [7]) it was 45 nM; in experiment [3] it was 210 nM; in experiment [5] it was 380 nM. Moreover, the EC50 in experiment [4] (Homo sapiens) is 99 nM.
With `CC[C@H]1CN(C(C)c2ccc(C(F)(F)F)cc2F)[C@H](CC)CN1c1nc(=O)n(C)c2ccc(C#N)nc12` (single isomer, unassigned) [Example 26], the IC50 in experiment [1] is 81 nM; in experiment [2] (setting [7]) it was 210 nM; in experiment [3], 29 nM; in experiment [5] it was 240 nM. For the same molecule, the EC50 in experiment [4] was 180 nM.
For `CC[C@H]1CN(C(c2ccc(F)cc2)c2nc(C3CC3)nn2C)[C@H](CC)CN1c1nc(=O)n(C)c2ccc(C#N)nc12` (single isomer, unassigned) [Example 295], in that order: 7230 nM, 820 nM, 100 nM, 100 nM and 580 nM.
Take `CC[C@@H]1CN(c2nc(=O)n(C)c3ccc(C#N)nc23)[C@@H](C)CN1C(C)c1ccc(C2(C#N)CC2)cc1` (stereo partly drawn) [Example 326, 4-((2S,5R)-4-(1-(4-(1-cyanocyclopropyl)phenyl)ethyl)-5-ethyl-2-methylpiperazin-1-yl)-1-methyl-2-oxo-1,2-dihydropyrido[3,2-d]pyrimidine-6-carbonitrile]: it took 3480 nM to reach a half-maximal effect in experiment [6] (EC50).
`CC[C@H]1CN(C(c2ccc(OC(F)(F)F)cc2)c2cc(C3CC3)on2)[C@H](CC)CN1c1nc(=O)n(C)c2ccc(C#N)nc12` (single isomer, unassigned) [Example 42]: the 50% inhibitory concentration (IC50) was 78 nM in experiment [1], 110 nM in experiment [2] (setting [7]), 7 nM in experiment [3] and 350 nM in experiment [5]. In addition, the EC50 in experiment [4] (Homo sapiens) came to 81 nM.
For `CCC(c1ccc(C(F)(F)F)cc1)N1C[C@H](C)N(c2nc(=O)n(C)c3ccc(C#N)nc23)C[C@H]1CC` (single isomer, unassigned) [Example 89], in that order: 55 nM, 110 nM, 60 nM, 260 nM and 35 nM.
`CC[C@@H]1CN(c2nc(=O)n(C)c3ccc(C#N)nc23)[C@@H](C)CN1C(c1ccc(F)cc1)c1ccc(C(F)(F)F)nc1` (single isomer, unassigned) [Example 98]: the IC50 in experiment [1] is 310 nM; in experiment [2] (setting [7]), 55 nM; in experiment [3], 26 nM; in experiment [5], 140 nM. In addition, the EC50 in experiment [4] is 88 nM.
For `CC[C@@H]1CN(c2nc(=O)n(C)c3ccc(C#N)nc23)[C@@H](C)CN1C(c1ccc(F)cc1)c1nc(C2CC2)no1` (stereo partly drawn) [Example 112, 4-((2S,5R)-4-((3-cyclopropyl-1,2,4-oxadiazol-5-yl)(4-fluorophenyl)methyl)-5-ethyl-2-methylpiperazin-1-yl)-1-methyl-2-oxo-1,2-dihydropyrido[3,2-d]pyrimidine-6-carbonitrile], in that order: 43 nM, 22 nM, 11 nM, 15 nM and 11 nM.
Turning to `CC[C@H]1CN(C(c2ccc(OC(F)(F)F)cc2)c2cc(C3CC3)on2)[C@H](CC)CN1c1nc(=O)n(C)c2ccc(C#N)nc12` (single isomer, unassigned) [Example 43], the IC50 in experiment [1] turned out to be 22 nM; in experiment [2] (setting [7]) it was 130 nM; in experiment [3], 82 nM; in experiment [5] it was 340 nM. For the same molecule, the EC50 in experiment [4] turned out to be 120 nM.
In experiment [6], `C[C@@H]1CN(c2nc(=O)n(C)c3ccc(C#N)nc23)[C@@H](C)CN1C(c1ccc(F)cc1)C12CC(C(F)(F)F)(C1)C2` (stereo partly drawn) [Example 452, 4-((2S,5R)-4-((4-fluorophenyl)(3-(trifluoromethyl)bicyclo[1.1.1]pentan-1-yl)methyl)-2,5-dimethylpiperazin-1-yl)-1-methyl-2-oxo-1,2-dihydropyrido[3,2-d]pyrimidine-6-carbonitrile] showed an EC50 of 20000 nM.
The molecule `CC[C@H]1CN(C(C)c2ccc(C(F)(F)F)cc2)[C@H](CC)CN1c1nc(=O)n(C)c2ccc(OCCOC)nc12` (stereo partly drawn) [Example 434, 4-((2S,5R)-2,5-diethyl-4-(1-(4-(trifluoromethyl)phenyl)ethyl)piperazin-1-yl)-6-(2-methoxyethoxy)-1-methylpyrido[3,2-d]pyrimidin-2(1H)-one] returned a half-maximal effective concentration (EC50) in experiment [6] of 20000 nM.
